Results published in patent US4778824A, “Method for suppressing a transplantation immunity and treating an allergic disease and an autoimmune disease” (Zaidan Hojin Biseibutsu Kagaku Kenkyu Kai, priority 1984, dated 1988).
Entries after “also recorded” stand apart in the source; their conditions may differ.

Assays:
bone marrow = assay: Bone marrow inhibition in the skin allograft test; format: in vivo, Fischer rats; settings: i.p., 10 or 20 days
Description: (§1) In the next place, the present inventors conducted a skin graft test with rats. In accordance with the method of Denham et al. (Denham et al., International Archives of Allergy and Applied Immunology, vol. 62, pp. 443-458, 1980), the skin of the tail of SHR rats was peeled and allografted onto Fischer rats. […] The inhibitory action of spergualin on tissue rejections is expected to manifest itself not only in skin transplantation but also in the transplantation of such organs as the kidney, heart, spleen, lung, liver, bone marrow and endocrine organs.
(§2) Skin sections (5×10 mm) were peeled from the tails of SHR rats (female, 10 wk old) and transplanted to Fischer rats (female, 10 wk old) on the back. Varying doses of spergualin were administered intraperitoneally for a consecutive period of 10 or 20 days starting on the day following the transplantation. Complete necrosis of the graft was used as a measure of rejection and the inhibitory action of the compound was evaluated in terms of how long the rejection was postponed. […] The longer the period of administration, the greater the inhibitory action.

mice = settings: cited from earlier work
[1] = tested on: Skin allograft rejection (SHR to Fischer rats); assay: Inhibition of rejection of skin allograft; format: in vivo
Description: as §1, §2

N=C(N)NCCCCC(O)CC(=O)NC(O)C(=O)NCCCCNCCCN (stereo not drawn) [spergualin, Spergualin]
inhibition of the bone marrow (bone marrow): No inhibition of the bone marrow was observed; also recorded: No such side effects as bone marrow inhibition were observed | cumulative toxicity (mice): No cumulative toxicity was observed | lethality (mice; gradual intravenous administration of 80 mg/kg): not lethal | LD50 (mice; intraperitoneal): approximately 150 mg/kg | dose dependence of inhibitory action on skin allograft rejection ([1]; i.p., 10 or 20 days): dose-dependent | inhibition of the rejection ([1]; throughout the administration period): Complete inhibition of the rejection
